pEC50: −log10 of the molar value.
What was measured:
hTLR8 = biological target: T1, hTLR8 (Homo sapiens, UniProt Q9NR97); test: Human TLR8 Reporter Assay; assay type: cell-based; conditions: HEK-Blue hTLR8 cells, 16 hours, normalized to tl8-506 (1 μM) and DMSO
T1 construct: host or cells: HEK-Blue hTLR8 cells (HEK293-derived, own knowledge)
T1 sequence (Q9NR97 27-1041): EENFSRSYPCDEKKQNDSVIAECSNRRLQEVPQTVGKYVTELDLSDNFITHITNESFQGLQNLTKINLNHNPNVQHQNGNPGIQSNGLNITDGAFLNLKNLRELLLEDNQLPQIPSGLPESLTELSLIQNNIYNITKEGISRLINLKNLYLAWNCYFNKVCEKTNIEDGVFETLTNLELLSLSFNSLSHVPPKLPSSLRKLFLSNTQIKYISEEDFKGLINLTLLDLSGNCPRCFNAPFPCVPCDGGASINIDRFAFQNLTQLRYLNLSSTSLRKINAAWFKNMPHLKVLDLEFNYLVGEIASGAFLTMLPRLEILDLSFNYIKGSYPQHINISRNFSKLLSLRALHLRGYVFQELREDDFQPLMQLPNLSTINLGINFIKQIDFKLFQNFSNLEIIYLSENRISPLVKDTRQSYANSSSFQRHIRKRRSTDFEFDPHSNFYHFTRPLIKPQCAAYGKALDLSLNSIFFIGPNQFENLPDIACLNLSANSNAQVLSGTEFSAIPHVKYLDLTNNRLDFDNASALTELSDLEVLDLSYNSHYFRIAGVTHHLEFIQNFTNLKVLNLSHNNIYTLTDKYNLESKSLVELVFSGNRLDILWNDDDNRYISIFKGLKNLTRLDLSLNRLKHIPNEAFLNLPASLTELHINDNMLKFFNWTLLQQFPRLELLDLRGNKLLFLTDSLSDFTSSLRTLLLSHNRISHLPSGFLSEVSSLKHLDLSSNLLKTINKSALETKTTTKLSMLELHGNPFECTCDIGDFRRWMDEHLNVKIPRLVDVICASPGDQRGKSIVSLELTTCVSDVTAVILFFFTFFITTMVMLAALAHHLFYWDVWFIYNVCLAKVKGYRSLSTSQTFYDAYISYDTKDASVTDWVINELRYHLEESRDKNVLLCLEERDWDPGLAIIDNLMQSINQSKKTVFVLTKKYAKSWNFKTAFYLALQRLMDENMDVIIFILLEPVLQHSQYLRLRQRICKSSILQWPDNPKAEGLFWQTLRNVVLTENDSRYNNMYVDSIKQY
Outline: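 HEK-Blue hTLR8 cells (20,000/well) incubated 16 h at 37 °C with 10-point 3-fold compound dilutions in HEK-Blue Detection medium; reporter read as absorbance at 620 nm. Effects normalized between DMSO and tl8-506 (1 μM); EC50 from 4-parameter fit.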

hTLR7 = biological target: T2, hTLR7 (Homo sapiens, UniProt Q9NYK1); test: Human TLR7 Reporter Assay; assay type: cell-based; conditions: HEK-Blue hTLR7 cells, 16 hours, normalized to CL097 (6 μM) and DMSO
T2 construct: host or cells: HEK-Blue hTLR7 cells (HEK293-derived, own knowledge)
T2 sequence (Q9NYK1 27-1049): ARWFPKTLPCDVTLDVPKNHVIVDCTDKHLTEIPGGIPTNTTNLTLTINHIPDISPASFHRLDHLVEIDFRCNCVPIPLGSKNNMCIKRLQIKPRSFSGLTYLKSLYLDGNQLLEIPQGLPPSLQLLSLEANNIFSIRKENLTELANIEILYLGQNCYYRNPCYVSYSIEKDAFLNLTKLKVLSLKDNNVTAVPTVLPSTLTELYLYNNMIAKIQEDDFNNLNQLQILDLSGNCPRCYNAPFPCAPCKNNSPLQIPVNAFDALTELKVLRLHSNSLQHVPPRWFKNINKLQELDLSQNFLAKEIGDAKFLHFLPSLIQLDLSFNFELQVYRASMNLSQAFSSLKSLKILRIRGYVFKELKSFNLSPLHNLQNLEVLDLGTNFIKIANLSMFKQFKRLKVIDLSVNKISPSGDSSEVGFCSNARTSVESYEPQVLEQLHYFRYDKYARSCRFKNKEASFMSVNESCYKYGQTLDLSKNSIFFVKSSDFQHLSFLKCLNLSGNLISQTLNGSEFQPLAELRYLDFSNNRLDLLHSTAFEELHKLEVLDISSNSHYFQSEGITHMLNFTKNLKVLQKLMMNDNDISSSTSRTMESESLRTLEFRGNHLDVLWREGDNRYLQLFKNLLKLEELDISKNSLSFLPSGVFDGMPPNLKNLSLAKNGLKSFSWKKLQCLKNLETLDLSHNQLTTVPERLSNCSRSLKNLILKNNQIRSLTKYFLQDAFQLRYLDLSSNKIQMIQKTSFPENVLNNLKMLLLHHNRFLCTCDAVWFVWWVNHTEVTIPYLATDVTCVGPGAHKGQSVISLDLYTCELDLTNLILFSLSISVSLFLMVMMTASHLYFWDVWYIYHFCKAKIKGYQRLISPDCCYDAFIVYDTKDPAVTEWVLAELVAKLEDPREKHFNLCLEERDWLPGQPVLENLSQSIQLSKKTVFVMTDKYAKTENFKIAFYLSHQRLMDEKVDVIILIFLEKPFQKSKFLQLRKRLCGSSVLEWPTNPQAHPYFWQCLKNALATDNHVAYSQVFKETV
Outline: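 HEK-Blue hTLR7 reporter cells (20,000/well) incubated 16 h at 37 °C with 10-point 3-fold compound dilutions; SEAP read by absorbance at 620 nm. Effects normalized between CL097 (6 μM) and DMSO controls; EC50 from 4-parameter fit.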

`CCC[C@@H](CO)Nc1nc(N)nc2cn(Cc3c(OC)cc(CN)cc3OC)nc12` [Compound 152] showed a pEC50 (hTLR8) of 6.91 and a pEC50 (hTLR7) of 6.73.
Compound `CCCCNc1nc(N)nc2cn(Cc3ccc(CN4CC(CN5C(=O)C=CC5=O)C4)cc3OC)nc12` [Compound 127] has a pEC50 (hTLR8) of 5.48 and a pEC50 (hTLR7) of 5.91.
Compound `CCCCNc1nc(N)nc2cn(Cc3ccc(CN4CCN(C(=O)CN5C(=O)C=CC5=O)CC4)cc3OC)nc12` [Compound 105] has a pEC50 (hTLR8) of 5.19 and a pEC50 (hTLR7) of 5.75.
For `CCCCNc1nc(N)nc2cn(Cc3c(OC)cc(CN4CCN(C(=O)C5CCC(CN6C(=O)C=CC6=O)CC5)CC4)cc3OC)nc12` (stereo not drawn) [Compound 74], the pEC50 (hTLR8) was under 4.52 and the pEC50 (hTLR7) was 5.48.
Compound `CCCCC(CCO)Nc1nc(N)nc2cn(Cc3ccccc3OC)nc12` (stereo not drawn) [Compound 16] has a pEC50 (hTLR8) of under 5.00 and a pEC50 (hTLR7) of 7.06.
For `CCCCNc1nc(N)nc2cn(Cc3c(OC)cc(N4C(=O)C=CC4=O)cc3OC)nc12` [Compound 98], the pEC50 (hTLR8) was under 5.00 and the pEC50 (hTLR7) was 6.38.
For `CCCCNc1nc(N)nc2cn(Cc3ccc(CN4CC(N)C4)cc3OC)nc12` [Compound 191], the pEC50 (hTLR8) was 6.07 and the pEC50 (hTLR7) was 6.27.
Compound `CCCCNc1nc(N)nc2cn(Cc3ccc(C(C)N(C)CCC)cc3OC)nc12` (stereo not drawn) [Compound 241] has a pEC50 (hTLR8) of 6.14 and a pEC50 (hTLR7) of 7.44.
In the case of `CCCCNc1nc(N)nc2cn(Cc3nc(C)no3)nc12` [Compound 170], the pEC50 (hTLR8) was 5.35 and the pEC50 (hTLR7) was 5.81.
`CCCCNc1nc(N)nc2cn(Cc3ccc(C4CCNC4)cc3)nc12` (stereo not drawn) [Compound 196] showed a pEC50 (hTLR8) of 6.12 and a pEC50 (hTLR7) of 6.34.
With `CCCCNc1nc(N)nc2cn(CCCCCCCCN)nc12` [Compound 13] the pEC50 (hTLR8) was 4.58 and the pEC50 (hTLR7) was 5.52.
`CCC[C@@H](CO)Nc1nc(N)nc2cn(Cc3c(OC)cc(C(CN)N(C)CCC)cc3OC)nc12` (stereo partly drawn) [Compound 221] showed a pEC50 (hTLR8) of 5.46 and a pEC50 (hTLR7) of 5.29.
Work on `CCCCNc1nc(N)nc2cn(Cc3ccc(C4CCNCC4)nc3OC)nc12` [Compound 138] yielded a pEC50 (hTLR8) of 5.75 and a pEC50 (hTLR7) of 6.72.
With `CCCCNc1nc(N)nc2cn(Cc3ccc(C4CCNC4)cc3OC)nc12` (stereo not drawn) [Compound 237] the pEC50 (hTLR8) was 5.14 and the pEC50 (hTLR7) was 6.21.
Work on `CCCCNc1nc(N)nc2cn(Cc3ccc(CN)cn3)nc12` [Compound 142] yielded a pEC50 (hTLR8) of 5.49 and a pEC50 (hTLR7) of 6.45.
Work on `CCCCNc1nc(N)nc2cn(Cc3ccc(C4CCCN4)cc3)nc12` (stereo not drawn) [Compound 205] yielded a pEC50 (hTLR8) of 6.28 and a pEC50 (hTLR7) of 6.39.
Compound `CCCCNc1nc(N)nc2cn(Cc3c(OC)cc(SC[C@H](N)C(=O)O)cc3OC)nc12` [Compound 230] has a pEC50 (hTLR8) of 5.05 and a pEC50 (hTLR7) of 6.05.
With `CCCCNc1nc(N)nc2cn(Cc3c(OC)cc(NCCN4C(=O)C=CC4=O)cc3OC)nc12` [Compound 134] the pEC50 (hTLR8) was 4.84 and the pEC50 (hTLR7) was 5.82.
